In patent publication US20230115675A1, “METHODS OF TREATING CANCER” (The Broad Institute, Inc., priority 2020, published 2023):
Read-outs that look alike come from different tables or passages of the source.

Experiments:
MON cells = assay: Viability after treatment with drugs in the presence of metal salts; type: cell-based; conditions: for cell death promoted by Zinc: 10 μM ZnCl2
Description: Metal binding compounds can induce a toxic phenotype either by sequestration (chelation) of metals from essential factors or by shuttling (e.g., an ionophore) of metals to cellular compartments where they are toxic.
The viability of MON cells was measured following treatment with increasing doses of indicated drugs in the presence of 10 μM FeCl2, FeCl3, ZnCl2, NiCl, CuCl2, or CoCl2 (FIG. 13). The viability of NCIH2030 cells was measured following treatment with increasing doses of indicated drugs in the presence of 10 μM FeCl2, FeCl3, ZnCl2, NiCl, CuCl2, or CoCl2 (FIG. 14).

143B rho0 cells = assay: Viability of 143B and 143B Rho0 cells; type: cell-based; conditions: 72 hours
Description: (§1) To establish if this effect is mediated by the electron transfer chain (ETC), 143B rho0 cells (lacking mitochondrial DNA) and their parental controls (143B) were tested.

NCHIH2030 cells = assay: Viability in media containing glucose or galactose; type: cell-based; conditions: glucose replaced with galactose in the media
Description: FIG. 32G-L show exemplary viability results of NCHIH2030 cells grown in the presence of 10 mM glucose or 10 mM galactose in the media after 72 hours (Pyrithione-Cu is Pyrithione-CuCl2 (1:1); TMT-Cu is TMT-CuCl2 (1:1); 8HQ-Cu is 8-HQ-CuCl2 (1:1); Disulfiram-Cu is Disulfiram-CuCl2 (1:1); NSC319726-Cu is NSC319726-Cu Cl2 1(1:1); AntiA is Antimycin A).
as §1

Biomarker-positive cells = assay: Cell culture washout (short exposure mimicking PK); type: cell-based; conditions: for sensitivity of biomarker-positive cells: high FDX1 expression vs biomarker negative
Description: […] Panels D and Panel E show the relative changes in metabolites as measured in ABC1(D) and A549 (E) 24 hours after a 2 hour pulse treatment with 100 nM elesclomol.
Biomarker-positive cells are sensitive to elesclomol-Cu(II) treatment corresponding to measured concentrations and kinetics measured in mice pharmokinetic (PK) studies.
Study simulates short exposure time that mimics the pharmokinetic (PK) properties of elesclomol-Cu(II).
Data supports Cmax driven activity profile. Cells will be used to establish a SubQ xenograft model where different copper ionophores could be analyzed for their efficacy.

FDX1 = biological target: T1, FDX1 (Homo sapiens, UniProt P10109); conditions: cited from earlier work; for binding to FDX1: previously shown
T1 sequence (P10109 61-184): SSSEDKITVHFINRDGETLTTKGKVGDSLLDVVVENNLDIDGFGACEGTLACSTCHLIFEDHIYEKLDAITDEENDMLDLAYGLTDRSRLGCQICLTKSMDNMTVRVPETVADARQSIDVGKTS

A549 cells = assay: Viability after FDX1 or LIAS gene deletion; type: cell-based
Description: It has been previously shown that ferredoxin 1 (FDX1) is an important mediator of elesclomol-induced toxicity. […] To better understand the potential downstream mediators of cuproptosis, a CRISPR/Cas9 deletion strategy was used. […] In all conditions, FDX1 gene was the highest scoring hit, emphasizing the importance of this gene in elesclomol mediated toxicity (FIG. 33). […] The lipoic acid pathway mediates the lysine lipoylation of specific enzymes (DLAT, DLST, DBT, GCSH) that is crucial for their function (FIG. 34). […] This hypothesis was particularly appealing as lipoylation is required for mitochondrial respiration and lipoic acid has shown to have a high affinity binding to copper.

OVISE cells = assay: Viability after LIAS or FDX1 gene deletion; type: cell-based
tumors = assay: Lipoic acid staining as biomarker of sensitivity
Description: Lipoic acid was stained in FDX1 KO cells by an immunohistochemistry assay.

ABC1 cells = assay: Elesclomol sensitivity of single cell clones with AAVS1 or FDX1 deletion; type: cell-based; conditions: in the presence of 1 uM CuCl2
three cell lines = assay: Pre-treatment with compounds that block known cell death pathways; type: cell-based
Description: To further establish which cell death pathways might be mediating the elesclomol induced copper-dependent cell death, a chemical approach was undertaken using compounds that block critical niches of known cell death pathways. […] As controls, ferroptosis-inducing GPX4 inhibitor (ML162) and apoptosis-inducing proteasome inhibitor (bortezomib) were used. […] Ferroptosis or apoptosis-altering compounds (as shown in the ML162 and bortezomib controls) had no effect on elesclomol-copper-induced cell death. […] The slight changes observed are most likely due to the copper chelating properties of the molecule. […] Given the absolute dependency and regulation of this cell death pathway by copper, this process is referred to as ‘cuproptosis’ for simplicity.

[1] = tested on: lipoyl-DLAT and lipoyl-DLST; assay: Western blot of lipoylated proteins; type: cell-based
Description: CRISPR KO FDX1 cell lines or CRISPR KO LIAS cell lines were created and were assessed for levels of lipoylated proteins lipoyl-DLAT and lipoyl-DLST by Western Blot (FIG. 8).
Lipoic acid is a strong binder of copper, making it plausible that elesclomol bound copper could directly affect the lipoylated proteins. Indeed, the addition of elesclomol at concentrations as low as 10 nM reduced the levels of lipoylated proteins without dramatically affecting the protein levels (FIG. 36 and FIG. 37).
The levels of lipoylation decrease following treatment of A549 cells with 1 μM elesclomol (+CuCl2) (FIG. 26).

[2] = tested on: multiple cell line models; assay: Elesclomol-induced cell death depending on copper availability (supplementation, TTM chelation, serum); type: cell-based
Description: The sensitivity of cells to elesclomol is dependent on copper availability. […] Copper is not supplemented in the media (RPMI) and therefore the availability of copper is restricted to the abundance of copper in serum, which can strongly vary. […] Thus, the efficacy of elesclomol is dependent on extracellular and intracellular copper availability.

[3] = Tsvetkov et al., Nat Chem Bio, 2019; cited from earlier work
[4] = cited from earlier work
HCM18 cells = assay: Viability of HCM18 control and Bak/Bax deleted cells; type: cell-based; conditions: HCM18 Bak/Bax knock out vs control
Description: FIG. 32A-F show exemplary viability results of HCM18 control cells or […] deletion cells after treatment with indicate concentrations of different compounds (Pyrithione-Cu is Pyrithione-CuCl2 (1:1); TMT-Cu is TMT-CuCl2 (1:1); 8HQ-Cu is 8-HQ-CuCl2 (1:1); Disulfiram-Cu is Disulfiram-CuCl2 (1:1); NSC319726-Cu is NSC319726-Cu Cl2 1(1:1); AntiA is Antimycin A).
Both iron and copper can generate highly reactive hydroxyl radical (.OH) from O2.— and H2O2 in the cell via the Fenton reaction. In the case of iron, this can result in lipid radicals that induce ferroptosis, a non-apoptotic cell death. […] As such, to determine if elesclomol induced cell death is apoptotic, a genetic approach was undertaken using the HCM18 cells that have the crucial apoptosis effectors (Bak and Bax) knocked out (FIG. 29). […] However, the ability of elesclomol-copper to induce cell death was unaffected (FIG. 11). Other copper binding molecules were tested in these cell lines and in all cases the efficacy of these compounds was unaffected by the genetic perturbation of the apoptosis pathway (FIG. 32).

lipid peroxidation = assay: Lipid peroxidation; type: cell-based
A549 cell lines = assay: Whole genome CRISPR/Cas9 deletion screens with copper bound ionophores; type: cell-based; conditions: positive selection
Description: These genes included FDX1, protein lipoylation enzymes (LIAS, LIPT1, and DLD) and subunits of the lipoylated protein complex pyruvate dehydrogenase (DLAT, PDHA1, and PDHB).
FIG. 54A-E show exemplary plots of the log fold change versus the calculated p-value of FDX1 (A), DLAT (B), DLD (C) and LIAS (D) genes from the two whole genome CRISPR/Cas9 deletion screens in A549 cell lines for two concentrations of elesclomol-Cu (40 nM and 100 nM). (E) The correlation scores of FDX1 mRNA expression with the viability of 724 cancer cell lines as previously determined (4) for the different concentrations of elesclomol.

[5] = Tsvetkov et al., Nat Chem Bio, 2019

In the case of `C/C(=N\NC(=S)N1CCC1)c1ccccn1` [NSC-319726], the “cell death promoted by Zinc” value (MON cells; to a lower extent than copper) is reported as “also able to promote the cell death” and the “sensitivity of 143B rho0 cells compared with parental 143B” value (143B rho0 cells) is reported as “equally sensitive”.
In the case of `CN(C)C(=S)SC(=S)N(C)C` [TMT, tetra methyl thiuram monosulfide], the “effect of shift to mitochondrial metabolism on sensitivity” value (from here on “effect of shift”) (NCHIH2030 cells) is reported as “rather mild” and the “sensitivity of 143B rho0 cells compared with parental 143B” value (143B rho0 cells) is reported as “equally sensitive”.
In the case of `CN1C(c2ccccc2)=[SH][Cu+2]23[SH]=C(c4ccccc4)N(C)[N]2C(=O)CC(=O)[N]13` [elesclomol-Cu(II)], the “biomarker selective cell killing after short exposure” value (Biomarker-positive cells; 2 hour exposure at 200 nM followed by washout) is listed as “sufficient to effect biomarker selective cell killing”, the “sensitivity of biomarker-positive cells” value (Biomarker-positive cells) is listed as “sensitive” and the “substrate of FDX1” value (FDX1; [5]) is listed as “neo-substrate of FDX1”. For the same compound, the “effect of deletion of FDX1 in A549 cells” value (A549 cells; A549) was “relative resistance”, the “effect of deletion of FDX1” value (A549 cells; multiple cell models) was “conferred resistance” and the “effect of deletion of LIAS or FDX1 in OVISE cells” value (OVISE cells) was “resistance”.
For `CN(NC(=O)CC(=O)NN(C)C(=S)c1ccccc1)C(=S)c1ccccc1` [elesclomol, Elesclomol], the “sensitivity of biomarker-positive cells” value (Biomarker-positive cells) is listed as “more sensitive”, the “sensitivity of tumors with increased levels of lipoic acid” value (tumors) is listed as “sensitive” and the “FDX1 activity in vitro” value (FDX1; [5]) is listed as “inhibits FDX1 activity”. For the same compound, the “binding to FDX1” value (FDX1) was “direct target”, the “binding to FDX1” value (FDX1; listed as Elesclomol) was “directly binds” and the “effect of decrease of FDX1 beyond certain threshold” value (ABC1 cells) was “increases the cell resistance”. For the same compound, the “block of cell death by copper chelation” value (three cell lines; three cell lines tested, TTM) was “only copper chelation by TTM, was able to block”, the “lipoyl-DLAT and lipoyl-DLST protein levels” value ([1]; 1 μM over 6 hours) was “decreased over time” and the levels of lipoylation ([1]; A549 cells, 1 μM (+CuCl2)) was “decrease”. For the same compound, the “concentration that reduced the levels of lipoylated proteins” value ([1]; without dramatically affecting the protein levels) was at most 10 nM, the “effect of deletion of LIAS” value (A549 cells) was “sufficient to promote resistance” and the “effect of shift” value (NCHIH2030 cells) was “increasingly more sensitive”. For the same compound, the “selectivity of metal binding” value (MON cells; among compounds of the cluster) was “most selective binding to copper”, the “sensitivity of 143B rho0 cells compared with parental 143B” value (143B rho0 cells) was “slightly more sensitive” and the “sensitivity in media lacking serum” value ([2]; completely reversed by addition of copper) was “increased resistance”. The “elesclomol-induced cell death upon addition of copper” value ([2]; copper 1 μM in media or 1:1 ratio with compound) was “strongly augment”, the “elesclomol induced cell death upon chelation of copper with tetrathiomolybdate (TTM)” value ([2]; multiple cell line models) was “completely blocks” and the “variability of efficacy with copper supplementation” value ([2]; subset of ovarian cancer cell lines) was “strongly reduces the variability”. The “copper dependence of killing” value [3] was “copper dependent”, the “Phase II trial outcome” value ([4]; in combination with paclitaxel) was “may provide a cancer progression-free survival benefit” and the “Phase III trial outcome” value ([4]; in vivo) was “failed”.
For `CCN(CC)C(=S)SSC(=S)N(CC)CC` [disulfiram, tetraethylthiuram disulfide], the “sensitivity of tumors with increased levels of lipoic acid” value (tumors) was “sensitive”, the “cell death promoted by Zinc” value (MON cells; to a lower extent than copper) was “also able to promote the cell death” and the “sensitivity of 143B rho0 cells compared with parental 143B” value (143B rho0 cells) was “slightly more sensitive”.
For `CN([N-]C(=O)CC(=O)[N-]N(C)C(=[SH+])c1ccccc1)C(=[SH+])c1ccccc1.[Cu]` [elesclomol-Cu(II)], the “efficacy in Bak/Bax deleted cells” value (HCM18 cells) was “unaffected”, the “block of cell death by pan-caspase inhibitors, Ferrostatin-1, Necrostatin-1, antioxidants” value (three cell lines; pre-treatment of cells) was “did not block” and the “change in lipid peroxidation” value (lipid peroxidation) was “did not induce a profound change”. The “effect of deletion of FDX1, protein lipoylation and PDH genes” value (A549 cell lines) was “promotes resistance”.
For `CCN(CC)C(=S)[S-].CCN(CC)C(=S)[S-].[Cu+2]` [Cu-DDC], the “effect of deletion of FDX1, protein lipoylation and PDH genes” value (A549 cell lines) was “promotes resistance”.
For `[O-][n+]1ccccc1[S-].[O-][n+]1ccccc1[S-].[Zn+2]` [Pyrithione, Pyrithione Zinc], the “effect of shift” value (NCHIH2030 cells) was “rather mild”, the “cell death promoted by Zinc” value (MON cells; to a lower extent than copper) was “also able to promote the cell death” and the “sensitivity of 143B rho0 cells compared with parental 143B” value (143B rho0 cells) was “equally sensitive”.
For `Oc1cccc2cccnc12` [8HQ, Oxyquinoline], the “effect of shift” value (NCHIH2030 cells) was “rather mild”, the “cell death promoted by Iron” value (MON cells; 10 μM FeCl2, FeCl3, to a lower extent than copper) was “also able to promote the cell death” and the “sensitivity of 143B rho0 cells compared with parental 143B” value (143B rho0 cells) was “equally sensitive”.
With `CC(=O)O[C@H]1C(=O)[C@@]2(C)[C@H]([C@H](OC(=O)c3ccccc3)[C@]3(O)C[C@H](OC(=O)[C@H](O)[C@@H](NC(=O)c4ccccc4)c4ccccc4)C(C)=C1C3(C)C)[C@]1(OC(C)=O)CO[C@@H]1C[C@@H]2O` [paclitaxel] the “efficacy in Bak/Bax deleted cells” value (HCM18 cells) was “strongly inhibited”.
